Measurements: US8710045B2, “Agents for preventing and treating disorders involving modulation of the ryanodine receptors” (The Trustees of Columbia University in the City of New York, priority 2004, dated 2014)
pEC50, pIC50: −log10 of the molar value. Values joined by “and” are separate entries in the source; they are usually repeats but may differ in a detail not shown here. Equal entries are not always repeated.

Key:
RyR2 = settings: wildtype mice, 0.5 mg/kg/h for 28 days post-myocardial infarction
Text: Equivalent amounts of RyR2 are immunoprecipitated with an antibody against RyR2 (top blot).

skeletal muscle = settings: five weeks after left coronary artery ligation; cited from earlier work
PKA-phosphorylated RyR2 = target: T1, PKA-phosphorylated RyR2 (Homo sapiens, UniProt Q92736); assay: FKBP12.6 rebinding assay: FKBP12.6 binding to PKA-phosphorylated RyR2 in cardiac SR; settings: compound 0.5-1000 nM; Michaelis-Menten curve fitting
T1 construct: from tissue
Protocol: Samples are centrifuged at 95,000 g for 10 min and the pellets are washed three times in 0.2 ml imidazole buffer. The final pellets are pooled and resuspended in imidazole buffer (final concentration≈10 μg/μl). […] Samples then are centrifuged at 100,000 g for 10 minutes and pellets washed 3 times with imidizol buffer. […] Immunoblots are developed using an anti-FKBP antibody (1:3,000 dilution). […] The intracellular solution contains (in mM): CsCl, 60; CaCl2, 1; EGTA, 11; MgCl2, 1; K2ATP, 5; HEPES, 10; aspartic acid, 50; pH 7.4 (CsOH). Under these conditions, it is expected that the measured current was carried by Ba^2+ primarily through L-type calcium channels which is referred to as ICa,L. Drugs are applied by a local solution changer and reach the cell membrane within 1 s.
The FKBP12.6 rebinding assay described above is used to determine the amount of FKBP12.6 binding to PKA-phosphorylated RyR2 at various concentrations (0.5-1000 nM) of the compounds shown. EC50 values are calculated using Michaelis-Menten curve fitting.
The EC50 values are calculated using Michaelis-Menten curve fitting.

hERG current = hERG current (Homo sapiens, UniProt Q12809); assay: hERG current, PatchXpress 7000A automatic parallel patch clamp in hERG-transfected HEK 293 cells (Example 6); settings: for Individual Data (% Inhibition): single cell; for hERG current inhibition at the highest concentration tested: highest concentration tested (10 μM)
Protocol: (§1) HEK293 cells were transfected with a plasmid containing the hERG cDNA and a neomycin resistance gene. Stable transfectants were selected by culturing the cells in the presence of G418. The selection pressure was maintained by continued culture in the presence of G418. […] Cells for use in electrophysiology were cultured in 35 mm dishes.
(§2) Onset and steady state block of hERG current was measured using a pulse pattern with fixed amplitudes (conditioning prepulse: +20 mV for 2 seconds; test pulse: −50 mV for 2 seconds) repeated at 10 second intervals, from a holding potential of −80 mV. Peak tail current was measured during the 2 second step to −50 mV. A steady state was maintained for at least 30 seconds before applying the test compound or the positive control. Peak tail current was monitored until a new steady state was achieved. Test compound concentrations were applied cumulatively in ascending order without washout between applications.
(§3) Data acquisition and analysis was performed using the suite of pCLAMP (Vre. 8.2) programs (Axon Instruments, Union City, Calif.). Steady state was defined by the limiting constant rate of change with time (linear time dependence). The steady state before and after application of the test or control compounds was used to calculate the percentage of current inhibited at each concentration. […] Nonlinear squares fits were solved with the Solver add-in for Excel 2000 (Microsoft, Redmond, Wash.).
(§4) Multiple compounds of the invention were tested for their effects on hERG currents. The compounds tested were: ARM036-Na, ARM047, ARM048, ARM050, ARM057, ARM064, ARM074, ARM075, ARM076, ARM077, ARM101, ARM102, ARM103, ARM104, ARM106, ARM107 and ARM26. […] Electrophysiological recordings were made using the PatchXpress 7000 A (Molecular Devices) automatic parallel patch clamp system. […] The duration of exposure to each test concentration was 5 minutes.

hERG = hERG (Homo sapiens, UniProt Q12809); assay: as above; settings: human, HEK 293 cells stably transfected with hERG cDNA
Protocol: as §1, §2, §3, §4

[1] = Individual Data (% Inhibition), single cell
[2] = Individual Data (% Inhibition), 10 μM, single cell
[3] = hERG current inhibition at the highest concentration tested, highest concentration tested (10 μM)

T1 sequence (Q92736 whole entry): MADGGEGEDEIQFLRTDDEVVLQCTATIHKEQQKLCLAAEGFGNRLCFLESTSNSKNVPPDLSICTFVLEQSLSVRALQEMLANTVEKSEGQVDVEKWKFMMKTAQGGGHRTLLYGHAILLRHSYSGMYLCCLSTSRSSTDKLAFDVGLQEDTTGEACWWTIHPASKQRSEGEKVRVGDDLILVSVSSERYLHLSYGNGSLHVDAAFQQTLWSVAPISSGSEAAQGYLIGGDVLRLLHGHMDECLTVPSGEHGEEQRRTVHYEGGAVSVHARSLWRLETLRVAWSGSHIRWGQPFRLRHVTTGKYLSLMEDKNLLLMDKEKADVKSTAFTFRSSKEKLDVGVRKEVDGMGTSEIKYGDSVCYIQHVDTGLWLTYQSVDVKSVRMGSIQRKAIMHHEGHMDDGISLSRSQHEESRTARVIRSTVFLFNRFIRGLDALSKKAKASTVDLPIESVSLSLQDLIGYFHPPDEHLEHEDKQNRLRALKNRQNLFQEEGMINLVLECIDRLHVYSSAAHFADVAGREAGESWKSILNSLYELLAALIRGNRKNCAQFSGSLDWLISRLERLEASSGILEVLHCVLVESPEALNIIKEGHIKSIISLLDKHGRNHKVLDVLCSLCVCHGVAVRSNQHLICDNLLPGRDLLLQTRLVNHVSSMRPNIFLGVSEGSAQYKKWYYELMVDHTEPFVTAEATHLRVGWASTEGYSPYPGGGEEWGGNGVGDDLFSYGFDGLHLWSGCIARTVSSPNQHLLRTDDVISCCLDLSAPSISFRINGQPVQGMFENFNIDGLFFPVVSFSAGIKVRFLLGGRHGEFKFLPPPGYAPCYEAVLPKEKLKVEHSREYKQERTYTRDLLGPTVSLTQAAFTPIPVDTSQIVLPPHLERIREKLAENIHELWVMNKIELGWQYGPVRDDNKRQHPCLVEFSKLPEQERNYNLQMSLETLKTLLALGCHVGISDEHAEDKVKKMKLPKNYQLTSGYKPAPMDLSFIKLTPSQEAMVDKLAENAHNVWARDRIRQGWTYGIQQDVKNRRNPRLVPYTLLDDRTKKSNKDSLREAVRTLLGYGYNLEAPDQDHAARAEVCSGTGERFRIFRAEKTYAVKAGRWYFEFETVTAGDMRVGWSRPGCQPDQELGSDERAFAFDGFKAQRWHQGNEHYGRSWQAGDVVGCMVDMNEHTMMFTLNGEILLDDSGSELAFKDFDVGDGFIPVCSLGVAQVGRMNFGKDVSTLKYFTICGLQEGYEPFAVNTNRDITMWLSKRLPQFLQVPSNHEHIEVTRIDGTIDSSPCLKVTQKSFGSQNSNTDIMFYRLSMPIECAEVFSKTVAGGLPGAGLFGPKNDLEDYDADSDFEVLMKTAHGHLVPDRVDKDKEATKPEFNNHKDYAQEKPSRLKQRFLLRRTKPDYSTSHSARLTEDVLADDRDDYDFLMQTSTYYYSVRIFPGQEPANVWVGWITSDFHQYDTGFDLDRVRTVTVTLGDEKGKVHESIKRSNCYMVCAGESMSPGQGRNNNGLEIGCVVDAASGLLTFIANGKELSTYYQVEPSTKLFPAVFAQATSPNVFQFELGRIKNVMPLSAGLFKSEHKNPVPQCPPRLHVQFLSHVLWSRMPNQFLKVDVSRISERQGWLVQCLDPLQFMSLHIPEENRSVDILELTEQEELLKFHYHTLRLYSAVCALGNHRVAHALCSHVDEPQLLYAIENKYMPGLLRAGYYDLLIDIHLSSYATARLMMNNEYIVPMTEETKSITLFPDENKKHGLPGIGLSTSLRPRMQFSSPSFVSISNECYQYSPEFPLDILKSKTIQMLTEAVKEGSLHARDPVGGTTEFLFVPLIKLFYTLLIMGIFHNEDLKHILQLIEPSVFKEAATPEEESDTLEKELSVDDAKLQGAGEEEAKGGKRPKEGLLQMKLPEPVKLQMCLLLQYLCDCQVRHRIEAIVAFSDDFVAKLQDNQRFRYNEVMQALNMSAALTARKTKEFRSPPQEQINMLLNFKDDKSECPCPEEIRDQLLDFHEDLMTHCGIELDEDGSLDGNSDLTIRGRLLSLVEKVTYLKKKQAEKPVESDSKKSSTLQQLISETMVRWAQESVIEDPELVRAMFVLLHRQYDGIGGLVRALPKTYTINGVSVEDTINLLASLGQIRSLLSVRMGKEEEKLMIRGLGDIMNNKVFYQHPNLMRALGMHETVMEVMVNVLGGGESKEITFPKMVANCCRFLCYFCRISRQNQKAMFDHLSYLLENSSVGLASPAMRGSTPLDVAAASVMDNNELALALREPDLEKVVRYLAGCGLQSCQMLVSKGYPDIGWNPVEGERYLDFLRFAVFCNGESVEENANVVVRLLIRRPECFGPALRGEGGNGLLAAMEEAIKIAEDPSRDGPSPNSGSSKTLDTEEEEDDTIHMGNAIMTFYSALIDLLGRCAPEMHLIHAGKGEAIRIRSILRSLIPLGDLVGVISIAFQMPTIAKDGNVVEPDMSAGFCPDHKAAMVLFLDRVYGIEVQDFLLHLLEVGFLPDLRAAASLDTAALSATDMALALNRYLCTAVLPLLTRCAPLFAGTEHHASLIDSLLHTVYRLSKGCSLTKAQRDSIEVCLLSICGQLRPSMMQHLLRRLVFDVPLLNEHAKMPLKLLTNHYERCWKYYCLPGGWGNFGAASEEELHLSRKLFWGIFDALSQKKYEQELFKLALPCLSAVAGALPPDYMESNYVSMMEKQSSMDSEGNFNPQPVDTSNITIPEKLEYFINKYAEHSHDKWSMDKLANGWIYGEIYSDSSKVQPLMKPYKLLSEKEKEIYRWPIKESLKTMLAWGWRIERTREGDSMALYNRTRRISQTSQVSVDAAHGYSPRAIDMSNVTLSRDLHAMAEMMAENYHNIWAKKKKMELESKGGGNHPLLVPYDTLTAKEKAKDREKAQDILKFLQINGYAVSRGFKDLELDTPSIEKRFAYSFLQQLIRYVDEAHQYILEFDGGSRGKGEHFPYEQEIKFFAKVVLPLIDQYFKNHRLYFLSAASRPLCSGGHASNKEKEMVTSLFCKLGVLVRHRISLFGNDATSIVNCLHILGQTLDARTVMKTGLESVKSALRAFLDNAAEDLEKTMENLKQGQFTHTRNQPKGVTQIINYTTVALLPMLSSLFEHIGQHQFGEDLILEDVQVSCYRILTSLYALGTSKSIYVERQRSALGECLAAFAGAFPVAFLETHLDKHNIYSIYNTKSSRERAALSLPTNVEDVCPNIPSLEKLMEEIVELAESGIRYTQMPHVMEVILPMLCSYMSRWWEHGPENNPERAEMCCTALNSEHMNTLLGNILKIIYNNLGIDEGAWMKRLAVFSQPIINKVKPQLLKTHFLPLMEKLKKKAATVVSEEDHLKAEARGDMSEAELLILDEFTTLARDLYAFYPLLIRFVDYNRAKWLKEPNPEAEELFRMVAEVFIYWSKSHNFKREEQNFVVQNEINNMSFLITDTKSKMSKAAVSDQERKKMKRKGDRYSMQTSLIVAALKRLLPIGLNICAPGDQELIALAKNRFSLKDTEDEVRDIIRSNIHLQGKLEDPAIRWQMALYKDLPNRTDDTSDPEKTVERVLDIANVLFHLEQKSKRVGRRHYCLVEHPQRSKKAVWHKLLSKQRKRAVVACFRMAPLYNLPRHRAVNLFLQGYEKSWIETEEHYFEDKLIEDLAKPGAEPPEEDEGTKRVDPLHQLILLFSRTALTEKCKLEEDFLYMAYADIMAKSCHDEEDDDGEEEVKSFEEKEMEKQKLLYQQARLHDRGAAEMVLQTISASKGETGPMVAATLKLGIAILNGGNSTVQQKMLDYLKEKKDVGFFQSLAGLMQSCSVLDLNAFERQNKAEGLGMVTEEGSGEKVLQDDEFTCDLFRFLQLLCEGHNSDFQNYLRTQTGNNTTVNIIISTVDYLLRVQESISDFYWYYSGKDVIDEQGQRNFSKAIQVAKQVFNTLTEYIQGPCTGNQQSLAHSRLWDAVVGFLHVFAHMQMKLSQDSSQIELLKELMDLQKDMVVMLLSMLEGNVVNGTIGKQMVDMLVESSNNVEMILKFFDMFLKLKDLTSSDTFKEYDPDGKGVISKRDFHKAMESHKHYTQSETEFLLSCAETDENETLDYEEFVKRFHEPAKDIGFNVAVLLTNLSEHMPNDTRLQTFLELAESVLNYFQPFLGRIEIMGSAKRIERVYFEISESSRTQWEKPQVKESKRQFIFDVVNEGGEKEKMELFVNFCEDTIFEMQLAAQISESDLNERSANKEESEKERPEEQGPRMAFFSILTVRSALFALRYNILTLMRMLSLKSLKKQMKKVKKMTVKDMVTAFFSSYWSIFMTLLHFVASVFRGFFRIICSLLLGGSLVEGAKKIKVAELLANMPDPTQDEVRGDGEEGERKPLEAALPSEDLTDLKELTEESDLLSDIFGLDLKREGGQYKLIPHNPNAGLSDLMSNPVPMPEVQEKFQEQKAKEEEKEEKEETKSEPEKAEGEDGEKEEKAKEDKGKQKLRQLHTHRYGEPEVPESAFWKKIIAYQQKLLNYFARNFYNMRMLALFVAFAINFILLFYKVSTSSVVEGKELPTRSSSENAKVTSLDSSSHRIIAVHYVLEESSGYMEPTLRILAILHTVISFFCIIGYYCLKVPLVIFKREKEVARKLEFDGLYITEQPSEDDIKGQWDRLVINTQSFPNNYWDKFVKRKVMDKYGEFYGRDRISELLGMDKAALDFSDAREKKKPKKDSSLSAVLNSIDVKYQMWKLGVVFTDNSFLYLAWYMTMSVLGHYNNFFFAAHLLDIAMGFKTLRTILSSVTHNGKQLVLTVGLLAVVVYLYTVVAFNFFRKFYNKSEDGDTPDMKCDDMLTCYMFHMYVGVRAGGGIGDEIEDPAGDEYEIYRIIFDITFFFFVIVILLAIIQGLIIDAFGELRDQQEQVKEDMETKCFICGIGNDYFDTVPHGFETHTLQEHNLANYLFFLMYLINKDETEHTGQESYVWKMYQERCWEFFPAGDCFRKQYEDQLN
T1 sequence (P68106 whole entry partner): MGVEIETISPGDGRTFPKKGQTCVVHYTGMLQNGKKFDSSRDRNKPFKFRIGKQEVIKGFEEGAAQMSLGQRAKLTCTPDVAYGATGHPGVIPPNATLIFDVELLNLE

## COc1ccc2c(c1)CN(C(=O)CCN1CCC(Cc3ccccc3)CC1)CCS2.Cl [JTV-519, 4-[3-(4-benzylpiperidin-1-yl)propionyl]-7-methoxy-2,3,4,5-tetrahydro-1,4-benzothiazepine monohydrochloride]
RyR2
  PKA phosphorylation of RyR2 at Ser-2808: reduces
FKBP12.6+/− mice; 0.5 mg/kg/h for 7 days, osmotic mini-pump
  resting heart rate or other ECG parameters: no effect
FKBP12.6+/− mice; plasma level 1 μM
  cardiac arrhythmias and sudden cardiac death: prevent
Skeletal muscle
  skeletal muscle function: able to improve skeletal muscle function

## COc1ccc2c(c1)CNCCS2 [S26]
PKA-phosphorylated RyR2
  pEC50: 7.40
hERG current
  pIC50: 5.15
hERG current; 0.01 μM
  Individual Data (% Inhibition): 8.7%
hERG current; 0.1 μM
  Individual Data (% Inhibition): 8.6%
hERG current; 1 μM
  Individual Data (% Inhibition): 13.2%
hERG current; 10 μM
  Individual Data (% Inhibition): 60.1%
hERG; [1]
  inhibition at 5 min, 0.01 µM: 9.1%
  inhibition at 5 min, 0.1 µM: 12.3%
  inhibition at 5 min, 1 µM: 11.3%
hERG; [2]
  inhibition at 5 min, 10 µM: 56.4%
hERG; Mean % hERG Inhibition
  inhibition at 5 min, 0.01 µM: 8.9%
  inhibition at 5 min, 0.1 µM: 10.5%
  inhibition at 5 min, 1 µM: 12.3%
hERG; Mean % hERG Inhibition, 10 μM
  inhibition at 5 min, 10 µM: 58.3%

## CCN(CC)C(=O)N1CCSc2ccc(OC)cc2C1 [S48]
PKA-phosphorylated RyR2
  pEC50: 7.00
hERG current; 0.01 μM, listed as ARM048, 0.01 µM
  Individual Data (% Inhibition): 0.5% and 2.0%
hERG current; 0.1 μM, listed as ARM048, 0.1 µM
  Individual Data (% Inhibition): 2.9%
hERG current; 1 μM, listed as ARM048, 1 µM
  Individual Data (% Inhibition): 3.5%
hERG current; 10 μM, listed as ARM048, 10 µM
  Individual Data (% Inhibition): 12.8%
hERG; [1]
  inhibition at 5 min, 0.1 µM: 4.2%
  inhibition at 5 min, 1 µM: 4.7%
hERG; [2]
  inhibition at 5 min, 10 µM: 15.2%
hERG; Mean % hERG Inhibition
  inhibition at 5 min, 0.01 µM: 1.3%
  inhibition at 5 min, 0.1 µM: 3.6%
  inhibition at 5 min, 1 µM: 4.1%
hERG; Mean % hERG Inhibition, 10 μM
  inhibition at 5 min, 10 µM: 14%
hERG; [3]
  inhibition at 5 min, 10 µM: < 50%

## COc1ccc2c(c1)CN(C(=O)N1CCNCC1)CCS2 [S64]
PKA-phosphorylated RyR2
  pEC50: 7.36
hERG current; 0.01 μM, listed as ARM064, 0.01 µM
  Individual Data (% Inhibition): −0.6% and 1.0%
hERG current; 0.1 μM, listed as ARM064, 0.1 µM
  Individual Data (% Inhibition): 8.1%
hERG current; 1 μM, listed as ARM064, 1 µM
  Individual Data (% Inhibition): 13.2% and 6.0%
hERG current; 10 μM, listed as ARM064, 10 µM
  Individual Data (% Inhibition): 28.5%
hERG; [1]
  inhibition at 5 min, 0.1 µM: 9.9%
hERG; [2]
  inhibition at 5 min, 10 µM: 32%
hERG; Mean % hERG Inhibition
  inhibition at 5 min, 0.01 µM: 0.2%
  inhibition at 5 min, 0.1 µM: 9%
  inhibition at 5 min, 1 µM: 9.6%
hERG; Mean % hERG Inhibition, 10 μM
  inhibition at 5 min, 10 µM: 30.3%
hERG; [3]
  inhibition at 5 min, 10 µM: < 50%

## CCN(CC)C(=O)N1CCSc2ccccc2C1 [S75]
PKA-phosphorylated RyR2
  pEC50: 6.82
hERG current; 0.01 μM, listed as ARM075, 0.01 µM
  Individual Data (% Inhibition): 1.1%
hERG current; 0.1 μM, listed as ARM075, 0.1 µM
  Individual Data (% Inhibition): 4.8%
hERG current; 1 μM, listed as ARM075, 1 µM
  Individual Data (% Inhibition): 4.1%
hERG current; 10 μM, listed as ARM075, 10 µM
  Individual Data (% Inhibition): 17.2%
hERG; [1]
  inhibition at 5 min, 0.01 µM: 1.7%
  inhibition at 5 min, 0.1 µM: 2.6%
  inhibition at 5 min, 1 µM: 3.7%
hERG; [2]
  inhibition at 5 min, 10 µM: 14.7%
hERG; Mean % hERG Inhibition
  inhibition at 5 min, 0.01 µM: 1.4%
  inhibition at 5 min, 0.1 µM: 3.7%
  inhibition at 5 min, 1 µM: 3.9%
hERG; Mean % hERG Inhibition, 10 μM
  inhibition at 5 min, 10 µM: 16%
hERG; [3]
  inhibition at 5 min, 10 µM: < 50%

## COC(=O)C(=O)N1CCSc2ccccc2C1 [S76]
PKA-phosphorylated RyR2
  pEC50: 7.60
hERG current; 0.01 μM, listed as ARM076, 0.01 µM
  Individual Data (% Inhibition): 0.0% and 0.7%
hERG current; 0.1 μM, listed as ARM076, 0.1 µM
  Individual Data (% Inhibition): 4.0% and 0.9%
hERG current; 1 μM, listed as ARM076, 1 µM
  Individual Data (% Inhibition): 2.0% and 4.1%
hERG current; 10 μM, listed as ARM076, 10 µM
  Individual Data (% Inhibition): 12.3%
hERG; [2]
  inhibition at 5 min, 10 µM: 10%
hERG; Mean % hERG Inhibition
  inhibition at 5 min, 0.01 µM: 0.4%
  inhibition at 5 min, 0.1 µM: 2.5%
  inhibition at 5 min, 1 µM: 3.1%
hERG; Mean % hERG Inhibition, 10 μM
  inhibition at 5 min, 10 µM: 11.2%
hERG; [3]
  inhibition at 5 min, 10 µM: < 50%

## O=C(O)C(=O)N1CCSc2ccccc2C1 [S77]
PKA-phosphorylated RyR2
  pEC50: 7.22
hERG current; 0.01 μM
  Mean % hERG Inhibition: 1.3%
hERG current; 0.01 μM, listed as ARM077, 0.01 µM
  Individual Data (% Inhibition): 1.4% and 1.1%
hERG current; 0.1 μM
  Mean % hERG Inhibition: 7.5%
hERG current; 0.1 μM, listed as ARM077, 0.1 µM
  Individual Data (% Inhibition): 11.4% and 3.6%
hERG current; 1 μM
  Mean % hERG Inhibition: 3.6%
hERG current; 1 μM, listed as ARM077, 1 µM
  Individual Data (% Inhibition): 3.1% and 4.0%
hERG current; 10 μM
  Mean % hERG Inhibition: 4.1%
hERG current; 10 μM, listed as ARM077, 10 µM
  Individual Data (% Inhibition): 0.9% and 7.2%
hERG current
  hERG current inhibition at the highest concentration tested: less than 50%

## O=C(N1CCN(Cc2ccc3c(c2)OCO3)CC1)N1CCSc2ccccc2C1 [S101]
PKA-phosphorylated RyR2
  pEC50: 6.98
hERG current
  pIC50: 5.36
hERG current; 0.01 μM, listed as ARM101, 0.01 µM
  Individual Data (% Inhibition): 2.5%
hERG current; 0.1 μM, listed as ARM101, 0.1 µM
  Individual Data (% Inhibition): 7.6%
hERG current; 1 μM, listed as ARM101, 1 µM
  Individual Data (% Inhibition): 27.0%
hERG current; 10 μM, listed as ARM101, 10 µM
  Individual Data (% Inhibition): 64.9%
hERG; [1]
  inhibition at 5 min, 0.01 µM: 4.3%
  inhibition at 5 min, 0.1 µM: 5.1%
  inhibition at 5 min, 1 µM: 18.9%
hERG; [2]
  inhibition at 5 min, 10 µM: 66.7%
hERG; Mean % hERG Inhibition
  inhibition at 5 min, 0.01 µM: 3.4%
  inhibition at 5 min, 0.1 µM: 6.4%
  inhibition at 5 min, 1 µM: 23%
hERG; Mean % hERG Inhibition, 10 μM
  inhibition at 5 min, 10 µM: 65.8%
hERG; [3]
  inhibition at 5 min, 10 µM: < 50%

## O=C(N1CCCCC1)N1CCSc2ccccc2C1 [S102]
PKA-phosphorylated RyR2
  pEC50: 6.87
hERG current; 0.01 μM
  Mean % hERG Inhibition: 2.5%
hERG current; 0.01 μM, listed as ARM102, 0.01 µM
  Individual Data (% Inhibition): 0.5% and 4.4%
hERG current; 0.1 μM
  Mean % hERG Inhibition: 4.2%
hERG current; 0.1 μM, listed as ARM102, 0.1 µM
  Individual Data (% Inhibition): 1.8% and 6.5%
hERG current; 1 μM
  Mean % hERG Inhibition: 5.7%
hERG current; 1 μM, listed as ARM102, 1 µM
  Individual Data (% Inhibition): 0.8% and 10.5%
hERG current; 10 μM
  Mean % hERG Inhibition: 47.3%
hERG current; 10 μM, listed as ARM102, 10 µM
  Individual Data (% Inhibition): 46.2% and 48.3%
hERG current
  hERG current inhibition at the highest concentration tested: less than 50%

## COc1ccc2c(c1)CN(C(=O)C(=O)O)CCS2(=O)=O [S104]
PKA-phosphorylated RyR2
  pEC50: 6.95
hERG current; 0.01 μM
  Mean % hERG Inhibition: 1.6%
hERG current; 0.01 μM, listed as ARM104, 0.01 µM
  Individual Data (% Inhibition): 1.2% and 1.9%
hERG current; 0.1 μM
  Mean % hERG Inhibition: 2.5%
hERG current; 0.1 μM, listed as ARM104, 0.1 µM
  Individual Data (% Inhibition): 1.1% and 3.9%
hERG current; 1 μM
  Mean % hERG Inhibition: 4.6%
hERG current; 1 μM, listed as ARM104, 1 µM
  Individual Data (% Inhibition): 3.1% and 6.0%
hERG current; 10 μM
  Mean % hERG Inhibition: 7.4%
hERG current; 10 μM, listed as ARM104, 10 µM
  Individual Data (% Inhibition): 8.3% and 6.5%
hERG current
  hERG current inhibition at the highest concentration tested: less than 50%
